Measurements: patent US5519116A, “Peptides representing permutations of the mastoparan sequence” (Enichem S.p.A., priority 1991, dated 1996)
Peptide text beside a SMILES is read from it.

What was measured:
rGOα = assay: GTPγS binding to rGOα to saturation; set-up: species or system rat; details: at 20°
[1] = target: T1, rGOα (recombined Goα protein) (Rattus norvegicus, UniProt P59215); assay: GTPase activity assay: GTP hydrolyzed by rGOα reconstituted into phospholipid blisters; type: biochemical; details: for inhibition at 1000 µM: 1 mM concentration of peptide, read-out: inhibition of hydrolysis of GTP by rGOα; for IC50: inhibition of basal GTPase activity of rGOα, read-out: IC 50 (concentration necessary to achieve 50% inhibition); for EC50: stimulation of rGOα GTPase activity, read-out: concentration giving 50 % of maximum stimulation
T1 construct: made in house; host or cells: E. coli (plasmid pT7-7)
Procedure: The activity of the peptides was determined by evaluating the quantity of GTP hydrolyzed in the presence of a recombined Goα protein, using the procedures published by Brandt et al., (1983), Biochemistry, 22, 4357-4362 and by Higashijima et al., (1987), J. Biol. Chem., 262, 757-761.
The rGOα was produced by the authors of the present invention by expression in E.coli of the cDNA of the α subunit of the Go protein present in the rat's brain, inserted in register in the bacterial plasmid pt7-7 (Tabor et al., 1985, Proc. Natl. Acad. Sci. USA, 82, 1074-1078).
Compared with natural GOα, rGOα has an N-terminal deletion of 11 amino acids, replaced by another 5 different amino acids because of the cloning strategy adopted. The molecular weight of rGOα is 38.6 Kd.
When the rGOα is reconstituted into phospholipid blisters (by incubation with a phospholipid mixture at 4° C. for 16 hours), its basal GTPase activity reduces to 0.02 min^-1, This experimental condition which approaches that of the natural protein, in the inactivity state, inserted into the cell membrane was chosen to evaluate the effect of the peptides on the hydrolysis of GTP by rGOα.
5 volumes of a solution of rGOα in 50 mM Hepes, pH 8, 1 mM EDTA, 1 mM DTT and 0.02% of Lubrol (HEDL) were mixed with 1 volume of the same buffer containing 0.84% of sodium cholate, 0.05% of dimyristoyl-L-α-phosphatidylcholine, 0.05% of phosphatidylethanolamine from bovine brain and 0.067% of phosphatidyl-serine from bovine brain (as described by Mousli et al., 1990, Immunol. Lett., 25, 355-358) and preincubated at 4° C. overnight.
An aliquot of 32 μl of this solution was incubated at 20° C. for 5 min in a final volume of 50 μl of HEDL containing 1.1 mM MgCl2 and 0.4 μM (γ^-32 p) GTP (10000-30000 cpm/pmol) and the respective peptide at the final concentrations indicated.
The reactions were terminated by adding 750 μl of a 5% suspension of vegetable charcoal in 20 mM phosphoric acid. After agitation and centrifuging, 400 μl of supernatant containing the radioactive phosphate were counted by liquid scintillation.

T1 sequence (P59215 13-354): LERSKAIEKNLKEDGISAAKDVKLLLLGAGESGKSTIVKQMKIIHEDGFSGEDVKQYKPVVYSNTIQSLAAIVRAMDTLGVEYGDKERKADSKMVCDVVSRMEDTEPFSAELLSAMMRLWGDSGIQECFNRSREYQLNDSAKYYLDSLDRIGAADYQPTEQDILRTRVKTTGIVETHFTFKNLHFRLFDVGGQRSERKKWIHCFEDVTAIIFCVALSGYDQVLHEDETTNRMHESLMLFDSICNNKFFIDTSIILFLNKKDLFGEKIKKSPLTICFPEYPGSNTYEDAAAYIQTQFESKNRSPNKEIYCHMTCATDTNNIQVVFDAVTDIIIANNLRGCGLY

## Nc1nc2c(ncn2[C@@H]2O[C@H](COP(=O)(O)OP(=O)(O)OP(O)(O)=S)[C@@H](O)[C@H]2O)c(=O)[nH]1 [GTPγ S]
rGOα
  Kd: 0.0029 µM

## CC[C@H](C)[C@H](N)C(=O)N[C@@H](CC(N)=O)C(=O)N[C@@H](CC(C)C)C(=O)N[C@@H](CCCCN)C(=O)N[C@@H](C)C(=O)N[C@@H](CC(C)C)C(=O)N[C@@H](C)C(=O)N[C@@H](C)C(=O)N[C@@H](CC(C)C)C(=O)N[C@@H](C)C(=O)N[C@@H](CCCCN)C(=O)N[C@@H](CCCCN)C(=O)N[C@H](C(=O)N[C@@H](CC(C)C)C(N)=O)[C@@H](C)CC [Mastoparan, mastoparan]
[1]; 1 mM of peptide (no additional effect beyond this concentration), 20° C., 5 min
  increase of GTP hydrolysis: 5 times
[1]; summary in words
  effect on the GTPase activity of rGOα (capacity to activate the protein rGoα): stimulate the GTPase activity of rGOα in a manner dependent on the concentration

## CC[C@H](C)[C@H](NC(=O)[C@H](CC(C)C)NC(=O)[C@H](C)NC(=O)[C@H](CCCCN)NC(=O)[C@H](CC(C)C)NC(=O)[C@H](CC(N)=O)NC(=O)[C@H](CC(C)C)NC(=O)[C@H](C)NC(=O)[C@@H](NC(=O)[C@H](CCCCN)NC(=O)[C@@H](N)CC(C)C)[C@@H](C)CC)C(=O)N[C@@H](C)C(=O)N[C@@H](C)C(=O)N[C@@H](CCCCN)C(=O)O [compound 2] (H-LKIALNLKALIAAK-OH)
[1]
  inhibition at 1000 µM: > 90%
  IC50: 130 µM

## CC[C@H](C)[C@H](NC(=O)[C@H](C)NC(=O)[C@H](CC(C)C)NC(=O)[C@H](C)N)C(=O)N[C@@H](CCCCN)C(=O)N[C@@H](CC(C)C)C(=O)N[C@H](C(=O)N[C@@H](CC(C)C)C(=O)N[C@@H](CC(N)=O)C(=O)N[C@@H](CC(C)C)C(=O)N[C@@H](CCCCN)C(=O)N[C@@H](C)C(=O)N[C@@H](CCCCN)C(=O)N[C@@H](C)C(=O)O)[C@@H](C)CC [peptide 1] (H-ALAIKLILNLKAKA-OH)
[1]
  inhibition at 1000 µM: 75%
  IC50: 215 µM

## CC[C@H](C)[C@H](N)C(=O)N[C@@H](CC(N)=O)C(=O)N[C@@H](CC(C)C)C(=O)N[C@@H](C)C(=O)N[C@@H](C)C(=O)N[C@@H](CC(C)C)C(=O)N[C@@H](CCCCN)C(=O)N[C@@H](CCCCN)C(=O)N[C@@H](CC(C)C)C(=O)N[C@@H](C)C(=O)N[C@@H](C)C(=O)N[C@@H](CCCCN)C(=O)N[C@H](C(=O)N[C@@H](CC(C)C)C(=O)O)[C@@H](C)CC [peptide 4] (H-INLAALKKLAAKIL-OH)
[1]; 20° C., 5 min
  EC50: 500 µM

## CC[C@H](C)[C@H](NC(=O)[C@H](C)NC(=O)[C@H](CCCCN)NC(=O)[C@H](CC(C)C)NC(=O)[C@H](CCCCN)NC(=O)[C@H](C)NC(=O)[C@H](CC(N)=O)NC(=O)[C@@H](N)CC(C)C)C(=O)N[C@@H](C)C(=O)N[C@@H](CC(C)C)C(=O)N[C@@H](C)C(=O)N[C@@H](CC(C)C)C(=O)N[C@H](C(=O)N[C@@H](CCCCN)C(=O)O)[C@@H](C)CC [peptide 7] (H-LNAKLKAIALALIK-OH)
[1]
  inhibition at 1000 µM: 63%
  IC50: 600 µM

## CC[C@H](C)[C@H](NC(=O)[C@H](CC(C)C)NC(=O)[C@H](C)NC(=O)[C@H](CCCCN)NC(=O)[C@H](C)NC(=O)[C@H](CC(C)C)NC(=O)[C@H](C)NC(=O)[C@H](CC(C)C)NC(=O)[C@@H](NC(=O)[C@@H](N)CC(N)=O)[C@@H](C)CC)C(=O)N[C@@H](CCCCN)C(=O)N[C@@H](C)C(=O)N[C@@H](CC(C)C)C(=O)N[C@@H](CCCCN)C(=O)O [peptide 8] (H-NILALAKALIKALK-OH)
[1]; 20° C., 5 min
  EC50: 250 µM
